Laboratory results from patent US11278529B2, “Methods for treating aggression associated with Alzheimer's disease” (Ovid Therapeutics Inc., priority 2014, dated 2022).

Experiments:
[1] = test system: APP/PS1 HET mice; test: Resident-Intruder (RI) test of aggression; format: in vivo
Source text: Behavioral aggression is a common symptom associated with Alzheimer's disease. The Resident-Intruder (RI) test is a behavioral test that can assess aggression in male mice. The two output measures are latency to attack and total number of attacks during the test. 40 Male APP/PS1 HET and 10 Male APP/PS1 WT were used as “residents”. Male C57BL/6J mice were used as intruders.
• animal age (>2 vs. >6 months for Fmr1 and APP/PS1) • housing conditions (APP/PS1 were single housed for 3 weeks ahead of testing) • lab, diet, and potentially lighting Many Other Key Variables were the Same: • route and timing of drug admin (i.p injection 30 min ahead of testing) • gender (male only) • genetic background (C57BL/6J) • 10 animals/group
Mice were screened for baseline aggression in the Resident Intruder test. Mice with attack latencies exceeding 150 seconds were excluded from the study. Mice were then balanced by latency to first attack, attack frequency, and body weight.
Gaboxadol (referred to as Test compound A) was tested at 0.5, 1, and 2 mg/kg following IP injection, 30 min pre-treat time. Mice were tested in Resident-Intruder paradigm for 5 minutes test duration.

[2] = test system: mouse model of Angelman syndrome; details: cited from earlier work
[3] = test system: male Balb/Cbyj mice; test: Locomotor activity, male Balb/Cbyj mice; format: in vivo; details: male Balb/Cbyj mice, 1.25, 2.5 and 5 mg/Kg i.p. 30 min ahead of testing
Method: 10 male Balb/Cbyj mice were administered 0.9% NaCl, and gaboxadol: 1.25 mg/Kg, 2.5 mg/Kg and 5 mg/Kg by i.p injection 30 min ahead of testing.

[4] = test system: healthy subjects; details: cited from earlier work
[5] = test system: predisposed individuals; details: high peak concentrations; cited from earlier work
[6] = test system: male C57 mice; test: Locomotor activity, male C57 mice; format: in vivo; details: male C57 mice, 1.25, 2.5 and 5 mg/Kg i.p. 30 min ahead of testing
Method: 10 male C57 mice were administered 0.9% NaCl, and gaboxadol: 1.25 mg/Kg, 2.5 mg/Kg and 5 mg/Kg by i.p injection 30 min ahead of testing.

[7] = test system: GABA; details: cited from earlier work
[8] = test system: patients with primary insomnia; details: cited from earlier work
[9] = test system: cerebellar granule cells; details: 500 nM; cited from earlier work
[10] = test system: GABA-uptake; details: cited from earlier work
[11] = test system: healthy young and elderly individuals; details: in vivo; cited from earlier work
[12] = test system: subjects under sleep-restriction; details: 15 mg, cited from earlier work
[13] = test system: primary insomnia subjects; details: cited from earlier work
[14] = cited from earlier work
[15] = test system: Fmr1 knockout mice; details: in vivo; cited from earlier work

Oc1noc2c1CCNC2 [gaboxadol, 4,5,6,7-tetrahydroisoxazolo(5,4-c)pyridin-3-ol]
heightened aggression ([1]; Alzheimer disease model): normalizes heightened aggression
attack frequency ([1]; HET mice, 0.5, 1, and 2 mg/kg IP, 30 min pre-treat): significantly attenuated
latency to first attack ([1]; HET mice, 0.5, 1, and 2 mg/kg IP, 30 min pre-treat, compared to vehicle): significantly increased
cerebellar dysfunction in vivo (hind paw abduction) ([2]; 1.25 mg/kg and 2.5 mg/kg): effective to rescue
adverse effects (reduced time on rotarod) ([2]; 1.25 mg/kg): without adverse effects
sedation (locomotor activity, total distance traveled) [3]: not sedating
TST increase compared to placebo ([4]; all dosages (5, 10, 15 mg), p<0.001): approximately 30 minutes
WASO reduction compared to placebo ([4]; all dosages (5, 10, 15 mg), p<0.05): 17 to 20 min
subjective measures of sleep quality relative to placebo ([4]; in vivo): improved
adverse event [5]: hallucinations
sedation (locomotor activity, total distance traveled) [6]: not sedating
GABA agonist activity [7]: very potent
TST ([8]; 5 mg and 15 mg, p<0.05): significantly improved
latency to persistent sleep ([8]; 15 mg, p<0.05): significantly reduced
SWS ([8]; 15 mg): enhance
stage 1, stage 2, or REM sleep ([8]; 15 mg): without significantly affecting
WASO ([8]; statistical significance only with the 5 mg dose): improved
excitability of cerebellar granule cells [9]: reduced
tonic holding currents [9]: increased
activity as a GABA-uptake inhibitor [10]: inactive
NREM sleep, sleep continuity, delta activity within NREM sleep, SWS/SWA [11]: increase
REM sleep [11]: without suppressing
mean more SWS compared to placebo ([12]; over four sleep-restriction nights): 21.8 min
stage 4 sleep and SWS compared with the placebo group ([12]; p<0.001): significantly more
stage 1 sleep, REM sleep, and shifts to wake or stage 1 sleep relative to placebo [12]: small but significant reductions
SWS compared with placebo ([13]; 10 mg (p<0.01) and 20 mg (p<0.001)): increase
WASO ([13]; 20 mg, p<0.01): significantly reduced
TST ([13]; 20 mg, p<0.05): significantly increased
NASO ([13]; both doses (10 and 20 mg), p<0.001): significantly reduced
t max ([14]; given orally, healthy subjects): 30 to 60 min
dose excreted in the urine ([14]; mostly unchanged): More than 95%
hyperactivity (travel and velocity) [15]: reduction or dampening
hypersensitivity to auditory stimuli [15]: reduction
